Data as given in US20160024421A1, “IONIC LIQUIDS CONTAINING QUATERNARY PHOSPHONIUM CATIONS AND CARBOXYLATE ANIONS, AND THEIR USE AS LUBRICANT ADDITIVES” (UT-Battelle, LLC, priority 2014, published 2016).
Where two headings read alike, the source gives them in different places.

Experiments:
Type in all cases: physicochemical
[1] = Thermogravimetric analysis (decomposition temperature)
Protocol: (§1) Thermogravimetric analysis (TGA) was performed on a thermogravimetric analyzer (TGA-2950, TA instruments) at a 10° C./min heating rate in air. […] The kinematic viscosities were measured on a […] viscometer.

Density = test: Density
[2] = Kinematic viscosity (Petrolab Minivis II viscometer); set-up: unit not given here
Protocol: as §1

| Molecule | Decomp. temperature [1] [°C] | Density @ 20° C. (Density) [g/mL] | Kinematic Viscosity @ 40° C. [2] | Decomp. temperature ([1]; TGA, 10° C./min heating rate in air) [°C] | Density @ 20° C. (Density; 20° C.) [g/mL] | Kinematic Viscosity @ 40° C. ([2]; 40° C.) |
| --- | --- | --- | --- | --- | --- | --- |
| trihexyltetradecylphosphonium 2-ethylhexanoate [[P66614][C7H15COO]b] | 308 | 0.88 | 184.8 | – | – | – |
| trihexyltetradecylphosphonium octanoate [[P66614][C7H15COO]s] | 261 | – | 122.2 | – | – | – |
| CCCCCCCCCCCCCCCCCC(=O)[O-].CCCCCCCCCCCCCC[P+](CCCCCC)(CCCCCC)CCCCCC [[P66614][C17H35COO]s] | – | – | – | 308 | 0.88 | – |
| CCCCCCCCCC(=O)[O-].CCCCCCCCCCCCCC[P+](CCCCCC)(CCCCCC)CCCCCC [[P66614][C9H19COO]s] | – | – | – | – | 0.89 | solid |
